# Measured values taken from patent US20130280212A1, “INHIBITORS OF CYTOCHROME P450” (GILEAD SCIENCES, INC, priority 2010, published 2013).
# Read-outs that look alike come from different tables or passages of the source.
# Biological target: T1, CYP3A4 (Homo sapiens, UniProt P08684)
# T1 construct: Pooled (n≧15 donors) human hepatic microsomal fraction was obtained from BD-Gentest; tissue BD-Gentest (Woburn, Mass.); host or cells: pooled human liver microsomes (n≧15 donors)
# Assay: CYP3A inhibition assay in pooled human hepatic microsomal fraction (midazolam 1-hydroxylase and testosterone 6β-hydroxylase activities)
# Format: biochemical
# Details: human hepatic microsomes
# Procedure: The initial mobile phase consisted of 94.9% water, 0.1% formic acid, and 5% acetonitrile (v/v/v) pumped at 0.5 mL/min. After 0.5 min the acetonitrile concentration was increased to 30% over 0.5 min. The acetonitrile concentration was then further increased to 100% over 0.5 min and held for 1.3 min, after which the column was re equilibrated at the initial conditions for 1.2 min. Rates of metabolite formation were determined from standard curves using PAR determined with authentic metabolite standards.
# [1] = probe activity midazolam 1-hydroxylase, read-out: CYP3A4 IC50 (μM) (midazolam)
# [2] = probe activity testosterone 6β-hydroxylase, substrate 50 μM, read-out: CYP3A4 IC50 (μM) (testosterone)
# T1 sequence (P08684 2-503): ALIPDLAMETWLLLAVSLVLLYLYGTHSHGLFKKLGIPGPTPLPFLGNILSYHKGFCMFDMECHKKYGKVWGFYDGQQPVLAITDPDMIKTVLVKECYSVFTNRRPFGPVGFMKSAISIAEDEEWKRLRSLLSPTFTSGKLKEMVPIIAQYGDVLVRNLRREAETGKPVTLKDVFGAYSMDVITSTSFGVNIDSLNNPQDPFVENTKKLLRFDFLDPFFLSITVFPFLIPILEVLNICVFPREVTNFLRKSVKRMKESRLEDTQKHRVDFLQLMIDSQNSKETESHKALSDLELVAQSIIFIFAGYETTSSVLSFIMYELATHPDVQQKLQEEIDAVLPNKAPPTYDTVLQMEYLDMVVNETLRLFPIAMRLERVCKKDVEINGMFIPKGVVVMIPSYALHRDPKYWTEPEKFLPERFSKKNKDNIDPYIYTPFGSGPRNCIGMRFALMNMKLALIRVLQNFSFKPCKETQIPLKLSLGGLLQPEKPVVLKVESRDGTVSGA
IC50 [1],IC50 [2],Structure (SMILES)
< 0.1 µM,0.36 µM,CC[C@H](C)C(=O)N[C@H](CC[C@H](Cc1ccccc1)NC(=O)OCc1cncs1)Cc1ccccc1 [Compound 7]
< 0.1 µM,0.38 µM,CC(C)OC(=O)N[C@H](CC[C@H](Cc1ccccc1)NC(=O)OCc1cncs1)Cc1ccccc1 [Compound 8]
0.13 µM,0.43 µM,CCC(C)OC(=O)N[C@H](CC[C@H](Cc1ccccc1)NC(=O)OCc1cncs1)Cc1ccccc1 (some centres unmarked) [Compound 9]
0.25 µM,0.71 µM,CC(C)CC(C)OC(=O)N[C@H](CC[C@H](Cc1ccccc1)NC(=O)OCc1cncs1)Cc1ccccc1 (some centres unmarked) [Compound 11]
< 0.1 µM,0.27 µM,CC(C)NC(=O)N[C@H](CC[C@H](Cc1ccccc1)NC(=O)OCc1cncs1)Cc1ccccc1 [Compound 14]
< 0.1 µM,0.25 µM,CCC(C)NC(=O)N[C@H](CC[C@H](Cc1ccccc1)NC(=O)OCc1cncs1)Cc1ccccc1 (some centres unmarked) [Compound 15]
< 0.1 µM,0.41 µM,CCC(CC)NC(=O)N[C@H](CC[C@H](Cc1ccccc1)NC(=O)OCc1cncs1)Cc1ccccc1 [Compound 16]
< 0.1 µM,0.32 µM,CC(C)S(=O)(=O)N[C@H](CC[C@H](Cc1ccccc1)NC(=O)OCc1cncs1)Cc1ccccc1 [Compound 17]
< 0.1 µM,0.34 µM,CCC(C)S(=O)(=O)N[C@H](CC[C@H](Cc1ccccc1)NC(=O)OCc1cncs1)Cc1ccccc1 (some centres unmarked) [Compound 18]

# More lines, now with the values behind:
Structure (SMILES),IC50 [1],IC50 [2]
C[C@H]1CC[C@H](C(=O)N[C@H](CC[C@H](Cc2ccccc2)NC(=O)OCc2cncs2)Cc2ccccc2)CC1 [Compound 3],0.12 µM,0.27 µM
CC(C)[C@H]1CC[C@H](C(=O)N[C@H](CC[C@H](Cc2ccccc2)NC(=O)OCc2cncs2)Cc2ccccc2)CC1 [Compound 4],< 0.1 µM,3.4 µM
O=C(N[C@H](CC[C@H](Cc1ccccc1)NC(=O)[C@H]1CC[C@H](c2ccc(Cl)cc2)CC1)Cc1ccccc1)OCc1cncs1 [Compound 5],1.8 µM,> 25 µM
CC[C@@H](C(=O)N[C@H](CC[C@H](Cc1ccccc1)NC(=O)OCc1cncs1)Cc1ccccc1)c1ccccc1 [Compound 6],0.51 µM,1.4 µM
CCC(CC)OC(=O)N[C@H](CC[C@H](Cc1ccccc1)NC(=O)OCc1cncs1)Cc1ccccc1 [Compound 10],0.2 µM,0.5 µM
CC(C)CC(OC(=O)N[C@H](CC[C@H](Cc1ccccc1)NC(=O)OCc1cncs1)Cc1ccccc1)C(C)C (some centres unmarked) [Compound 12],0.38 µM,0.4 µM
CC(CC(C)(C)C)OC(=O)N[C@H](CC[C@H](Cc1ccccc1)NC(=O)OCc1cncs1)Cc1ccccc1 (some centres unmarked) [Compound 13],0.4 µM,0.54 µM
